The values that follow come from ChEMBL document CHEMBL1152803, “Synthesis and vasodilator effects of rutaecarpine analogues which might be involved transient receptor potential vanilloid subfamily, member 1 (TRPV1)” (Bioorg Med Chem, 2009).

Calls of active or inactive are those of the source. No cut-off for these calls is given here.

In general, EC50 refers to the concentration that produces a half-maximal response. In general, Emax refers to the size of the effect at its maximum, as opposed to the concentration needed.

One assay concerns Rattus norvegicus. Briefly: Antihypertensive activity against phenol-induced hypertension in Sprague-Dawley rat assessed as decrease in mean arterial pressure at 300 µg/kg, iv in presence of capsaicin administered 4 days before compound administration. To be noted: Artery.
Regarding `Cc1ccc2[nH]c3c(c2c1)CCn1c-3nc2ccccc2c1=O`, the result was inactive.

For another assay, the system named is Rattus norvegicus. The assay is described as follows: Antihypertensive activity against phenol-induced hypertension in iv dosed Sprague-Dawley rat assessed as decrease in mean arterial blood pressure. The assay is classed as functional, organism-based. As to conditions: Artery.
As for `Cc1ccc2[nH]c3c(c2c1)CCn1c-3nc2ccccc2c1=O`, the Activity entry was “Dose-dependent effect”.

The test system of the next assay is Aorta. Briefly: Vasodilative activity against […] Sprague-Dawley rat thoracic aorta assessed as reduction in phenylepinephrine-induced contraction. It is filed as functional, tissue-based.
Conditions: not given
As for `O=c1c2ccccc2c(O)c2n1CCc1c-2[nH]c2ccccc12`, the EC50 was 15400 µM and the Emax came out at 14.1%.

As to `O=c1c2ccccc2nc2n1CCc1c-2[nH]c2c(Cl)cc(Cl)c(Cl)c12`, the EC50 amounted to 2.31 µM and the Emax was 51%.

Take `O=c1c2ccccc2nc2n1CCc1c-2[nH]c2ccccc12` [RUTAECARPINE]: the concentration giving a half-maximal response (EC50) was determined as 1.33 µM and the Emax came out at 79.3%.

In the case of `COc1ccc2[nH]c3c(c2c1)CCn1c-3nc2ccc(Cl)cc2c1=O`, the EC50 is 2.11 µM and the maximal response (Emax) came out at 55.2%.

In the case of `O=C1c2ccccc2OC2c3[nH]c4ccccc4c3CCN12` (stereo not given), the EC50 was 220 µM and the Emax was 39.8%.

Take `COc1ccc2[nH]c3c(c2c1)CCn1c-3nc2ccc(Br)cc2c1=O`: the EC50 came out at 9.4 µM and the Emax came to 40.3%.

Turning to `COc1ccc2[nH]c3c(c2c1)CCN1C(=O)c2ccccc2OC31C` (stereo not given), the EC50 worked out at 934 µM and the maximum response (Emax) was 31.6%.

Turning to `Cc1cccc2c3c([nH]c12)-c1nc2ccccc2c(=O)n1CC3`, the EC50 amounted to 2.99 µM and the Emax is 47%.

Consider `COc1ccc2[nH]c3c(c2c1)CCn1c-3nc2cc(Cl)ccc2c1=O`, for which the concentration for a half-maximal effect (EC50) turned out to be 22.5 µM and the Emax worked out at 33.9%.

Turning to `O=c1c2c(Cl)cccc2nc2n1CCc1c-2[nH]c2ccccc12`, the EC50 turned out to be 16.8 µM and the Emax was determined as 39.6%.

For the compound `CC12Oc3ccccc3C(=O)N1CCc1c2[nH]c2ccccc12` (stereo not given), the EC50 was determined as 1590 µM and the Emax was 29.9%.

Consider `COc1ccc2[nH]c3c(c2c1)CCn1c-3c(O)c2ccccc2c1=O`, for which the EC50 was 5700 µM and the maximum response (Emax) was 13.2%.

As for `COc1ccc2[nH]c3c(c2c1)CCn1c-3nc2ccccc2c1=O`, the EC50 was found to be 55.1 µM and the Emax amounted to 42.6%.

Consider `CC(=O)c1ccc2[nH]c3c(c2c1)CCn1c-3nc2ccccc2c1=O`, for which the EC50 stood at 3.25 µM and the maximal effect (Emax) is 68.2%.

Consider `COc1ccc2[nH]c3c(c2c1)CCN1C(=O)c2ccccc2OC31` (stereo not given), for which the EC50 was determined as 63600 µM and the Emax turned out to be 13%.

As for `O=c1c2ccc(Cl)cc2nc2n1CCc1c-2[nH]c2ccccc12`, the EC50 was determined as 21.1 µM and the Emax worked out at 36.6%.

For the compound `COc1ccc2[nH]c3c(c2c1)CCn1c-3nc2cccc(Cl)c2c1=O`, the EC50 amounted to 19.7 µM and the Emax was determined as 37.1%.

Turning to `O=C1c2ccccc2NC2(C(F)(F)F)c3[nH]c4ccccc4c3CCN12` (stereo not given), the EC50 came to 7.86 µM and the Emax was 42.5%.

Turning to `Cc1ccc2[nH]c3c(c2c1)CCn1c-3nc2ccccc2c1=O`, the EC50 amounted to 1.24 µM and the Emax is 85.1%.

Turning to `COC(=O)C(Cc1c[nH]c2ccccc12)n1cnc2ccccc2c1=O` (stereo not given), the EC50 was 5460 µM and the Emax was determined as 15.5%.

Turning to `O=c1c2cc(Cl)ccc2nc2n1CCc1c-2[nH]c2ccccc12`, the EC50 amounted to 32.3 µM and the Emax came out at 40.6%.

With `c1ccc2c(c1)CN1CCc3c([nH]c4ccccc34)C1N2` (stereo not given) [RUTAECARPANE], the EC50 was 20.1 µM and the Emax came to 63.6%.

On to `c1ccc2c(c1)CN1CCc3c([nH]c4ccccc34)C1=N2` [RUTAECARPENE], for which the EC50 was found to be 25.1 µM and the Emax was determined as 68.9%.

`O=c1c2ccccc2nc2n1CCc1c-2[nH]c2c(Cl)cccc12`: the EC50 worked out at 2.44 µM and the Emax turned out to be 50.1%.
